Reference: US9717709B2, “Substituted pyrazoles as heat shock transcription factor activators” (Duke University, priority 2010, dated 2017)
Each block holds one compound with its values, some of them ahead of it.

Tests used:
mouse model of ALS = details: Kieran et al., Nature Medicine 2004; cited from earlier work
Hsp90 = experiment: competitive binding assay in vitro using biotinylated geldanamycin (GD-B)
Source text: Many pharmacological inhibitors of Hsp90 such as geldanamycin and 17-AAG target the amino-terminal ATP binding pocket of Hsp90, thereby inhibiting its chaperone function. To test whether HSF1A has affinity for the Hsp90 ATP-binding pocket, we performed competitive binding assays in vitro using a biotinylated geldanamycin (GD-B) molecule. […] Because other small molecule inhibitors of Hsp90, including celastrol, novobiocin, and EGCG, are thought to bind Hsp90 at the carboxy-terminus Amolins, M and Blagg, B, Mini Rev Med Chem. 2009 9, 140-152, we ascertained whether HSF1A could bind to Hsp90 at a region outside of the ATPbinding pocket. To assay for HSF1A binding to Hsp90, we generated an HSF1A-biotin conjugate (HSF1A-B)) and assayed the ability of HSF1A-B to interact with Hsp90.

SMILES: [O-][n+]1cccc(/C(Cl)=N/OC[C@H](O)CN2CCCCC2)c1 [arimoclomal]
- disease progression (mouse model of ALS): significantly delays disease progression

- competition with GD-B for Hsp90 binding (Hsp90; concentrations 100-fold higher than GD-B): unable to compete
SMILES: CCc1ccc(S(=O)(=O)Nc2cc(-c3cccs3)nn2-c2ccccc2)cc1 [HSF1A]

- competition with GD-B for Hsp90 binding (Hsp90; at 1 mM and 10 mM): able to compete
SMILES: C=CCNC1=C2C[C@@H](C)C[C@H](OC)[C@H](O)[C@@H](C)/C=C(\C)[C@H](OC(N)=O)[C@@H](OC)/C=C\C=C(/C)C(=O)NC(=CC1=O)C2=O [17-AAG]
